Reference: US20020137929A1, “1 - (3-heterocyclylphenyl) isothiourea, -isourea, -guanidine and -amidine herbicidal agents” (Intellectual Property Department, BASF Aktiengesellschaft, priority 1998, published 2002)

Tests used:
GALAP (Galium) [1] = assay: Postemergence herbicidal evaluation; assay type: in vivo, Galium aparine; conditions: postemergence
Summary of the method: (§1)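 Two-week-old seedlings sprayed with compound in 50/50 acetone/water plus 0.5% TWEEN 20, at about 0.0156 to 0.500 kg/ha, nozzle at 40 psi. Kept in greenhouse; rated visually 4-5 weeks after treatment on a 0-9 scale versus control, repeat tests averaged.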

CYPSE (Flatsedge) = assay: Preemergence weed control under flooded paddy conditions; assay type: in vivo, Cyperus serotinus; conditions: rated 3-4 weeks after treatment
Summary of the method: (§2)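 Flooded-pot preemergence screen with silt loam and seeds in the upper 0.5 cm. Dose about 0.0313 to 0.500 kg/ha, delivered into flood water; visual 0-9 score after 3 to 4 weeks.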

ORYSAT (Rice, Tebonnet) = assay: Postemergence herbicidal evaluation; assay type: in vivo, Oryza sativa, (L.) Tebonnet; conditions: postemergence
Summary of the method: as §1

GALAP (Galium) [2] = assay: Preemergence herbicidal evaluation; assay type: in vivo, Galium aparine; conditions: rated 4-5 weeks after treatment
Summary of the method: (§3)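 Herbicidal effect scored visually, 0-9, at 4 to 5 weeks against a control; compound applied preemergence by aqueous acetone spray to seeded soil at about 0.0156 to 0.500 kg/ha.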

CASOB (Sicklepod) [3] = assay: Preemergence herbicidal evaluation; assay type: in vivo, Cassia obtusifolia; conditions: rated 4-5 weeks after treatment
Summary of the method: as §3

CYPIR (Rice Flatsedge) = assay: Preemergence weed control under flooded paddy conditions; assay type: in vivo, Cyperus iria; conditions: rated 3-4 weeks after treatment
Summary of the method: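 First, seeds or propagules go into the top 0.5 cm of silt loam; next, water is held 1.5 to 3 cm over the soil; then compound (50/50 acetone/water) is pipetted into it at about 0.0313 to 0.500 kg/ha; finally plants are rated visually 0-9 after three to four weeks.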

SETVI (Foxtail, Green) = assay: Postemergence herbicidal evaluation; assay type: in vivo, Setaria viridis; conditions: postemergence
Summary of the method: as §1

ECHCG (Barnyardgrass) = assay: Postemergence herbicidal evaluation; assay type: in vivo, Echinochloa crus-galli; conditions: postemergence
Summary of the method: as §1

[4] = tested on: CHEAL (Lambsquarters, Common); assay: Postemergence herbicidal evaluation; assay type: in vivo, Chenopodium album; conditions: postemergence
Summary of the method: as §1

CASOB (Sicklepod) [5] = assay: Postemergence herbicidal evaluation; assay type: in vivo, Cassia obtusifolia; conditions: postemergence
Summary of the method: as §1

AMBEL (Ragweed, Common) = assay: Postemergence herbicidal evaluation; assay type: in vivo, Ambrosia artemisifolia; conditions: postemergence
Summary of the method: as §1

[6] = tested on: SAGPY (Arrowhead (Pygmaea)); assay: Preemergence weed control under flooded paddy conditions; assay type: in vivo, Sagittaria pygmaea; conditions: rated 3-4 weeks after treatment
Summary of the method: as §2

ZEAMX (Corn, Field) = assay: Preemergence herbicidal evaluation; assay type: in vivo, Zea mays; conditions: rated 4-5 weeks after treatment
Summary of the method: as §3

[7] = tested on: GLXMAW (Soybean, Williams); assay: Postemergence herbicidal evaluation; assay type: in vivo, Glycine max, (L.) Merr. cv Williams; conditions: postemergence
Summary of the method: as §1

CCOC(=O)CN1C(=O)C(Cl)SC1=Nc1cc(-n2c(=O)cc(C(F)(F)F)n(C)c2=O)c(F)cc1Cl (centres unmarked) [Compound 126, Ethyl 5-chloro-2-{{2-chloro-5-[3,6-dihydro-3-methyl-2,6-dioxo-4-(trifluoromethyl)-1(2H)-pyrimidinyl]-4-fluorophenyl}imino}-4-oxo-3-thiazolidineacetate]
6.0: herbicidal rating GLXMAW ([7]; rate 0.0625 kg/ha)
5.0: herbicidal rating AMBEL (AMBEL (Ragweed, Common); rate 0.0156 kg/ha) | herbicidal rating GLXMAW ([7]; rate 0.0156 kg/ha)
8.0: Preemergence herbicidal rating ZEAMX (ZEAMX (Corn, Field); rate 0.5000 kg/ha)
7.0: herbicidal rating GLXMAW ([7]; rate 0.1250 kg/ha)
1.0: herbicidal rating ORYSAT (ORYSAT (Rice, Tebonnet); rate 0.1250 kg/ha)
0.5: herbicidal rating ORYSAT (ORYSAT (Rice, Tebonnet); rate 0.0313 kg/ha) | herbicidal rating ORYSAT (ORYSAT (Rice, Tebonnet); rate 0.0625 kg/ha)
5.5: herbicidal rating GLXMAW ([7]; rate 0.0313 kg/ha)
4.0: herbicidal rating CHEAL ([4]; rate 0.0156 kg/ha) | herbicidal rating CHEAL ([4]; rate 0.0313 kg/ha) | herbicidal rating CHEAL ([4]; rate 0.0625 kg/ha) | herbicidal rating CASOB (CASOB (Sicklepod) [5]; rate 0.1250 kg/ha) | Preemergence herbicidal rating ZEAMX (ZEAMX (Corn, Field); rate 0.2500 kg/ha)
0.0: herbicidal rating GALAP (GALAP (Galium) [1]; rate 0.0156 kg/ha) | herbicidal rating GALAP (GALAP (Galium) [1]; rate 0.0313 kg/ha) | herbicidal rating GALAP (GALAP (Galium) [1]; rate 0.0625 kg/ha) | herbicidal effect rating, CYPSE (CYPSE (Flatsedge); 0.0313 kg/ha) | herbicidal effect rating, CYPSE (CYPSE (Flatsedge); 0.0625 kg/ha) | herbicidal effect rating, CYPSE (CYPSE (Flatsedge); 0.1250 kg/ha) | herbicidal effect rating, CYPSE (CYPSE (Flatsedge); 0.2500 kg/ha) | herbicidal rating ORYSAT (ORYSAT (Rice, Tebonnet); rate 0.0156 kg/ha) | Preemergence herbicidal rating GALAP (GALAP (Galium) [2]; rate 0.0625 kg/ha) | Preemergence herbicidal rating GALAP (GALAP (Galium) [2]; rate 0.1250 kg/ha) | Preemergence herbicidal rating CASOB (CASOB (Sicklepod) [3]; rate 0.0625 kg/ha) | Preemergence herbicidal rating CASOB (CASOB (Sicklepod) [3]; rate 0.1250 kg/ha) | Preemergence herbicidal rating CASOB (CASOB (Sicklepod) [3]; rate 0.2500 kg/ha) | herbicidal effect rating, CYPIR (CYPIR (Rice Flatsedge); 0.0313 kg/ha) | herbicidal effect rating, CYPIR (CYPIR (Rice Flatsedge); 0.0625 kg/ha) | herbicidal effect rating, CYPIR (CYPIR (Rice Flatsedge); 0.1250 kg/ha) | herbicidal rating SETVI (SETVI (Foxtail, Green); rate 0.0156 kg/ha) | herbicidal rating ECHCG (ECHCG (Barnyardgrass); rate 0.0156 kg/ha) | herbicidal rating ECHCG (ECHCG (Barnyardgrass); rate 0.0313 kg/ha) | herbicidal rating ECHCG (ECHCG (Barnyardgrass); rate 0.0625 kg/ha) | herbicidal rating ECHCG (ECHCG (Barnyardgrass); rate 0.1250 kg/ha) | herbicidal rating CASOB (CASOB (Sicklepod) [5]; rate 0.0156 kg/ha) | herbicidal rating CASOB (CASOB (Sicklepod) [5]; rate 0.0313 kg/ha) | herbicidal effect rating, SAGPY ([6]; 0.0313 kg/ha) | herbicidal effect rating, SAGPY ([6]; 0.0625 kg/ha) | Preemergence herbicidal rating ZEAMX (ZEAMX (Corn, Field); rate 0.0625 kg/ha)
2.0: herbicidal effect rating, CYPIR (CYPIR (Rice Flatsedge); 0.2500 kg/ha) | herbicidal rating CASOB (CASOB (Sicklepod) [5]; rate 0.0625 kg/ha) | Preemergence herbicidal rating ZEAMX (ZEAMX (Corn, Field); rate 0.1250 kg/ha)
9.0: Preemergence herbicidal rating GALAP (GALAP (Galium) [2]; rate 0.2500 kg/ha) | Preemergence herbicidal rating GALAP (GALAP (Galium) [2]; rate 0.5000 kg/ha) | herbicidal rating SETVI (SETVI (Foxtail, Green); rate 0.1250 kg/ha) | herbicidal rating CHEAL ([4]; rate 0.1250 kg/ha) | herbicidal rating AMBEL (AMBEL (Ragweed, Common); rate 0.0313 kg/ha) | herbicidal rating AMBEL (AMBEL (Ragweed, Common); rate 0.0625 kg/ha) | herbicidal rating AMBEL (AMBEL (Ragweed, Common); rate 0.1250 kg/ha)
3.0: herbicidal rating GALAP (GALAP (Galium) [1]; rate 0.1250 kg/ha) | Preemergence herbicidal rating CASOB (CASOB (Sicklepod) [3]; rate 0.5000 kg/ha) | herbicidal rating SETVI (SETVI (Foxtail, Green); rate 0.0313 kg/ha) | herbicidal rating SETVI (SETVI (Foxtail, Green); rate 0.0625 kg/ha) | herbicidal effect rating, SAGPY ([6]; 0.1250 kg/ha) | herbicidal effect rating, SAGPY ([6]; 0.2500 kg/ha)
